Among the data in patent publication US20260250325A1, “Antiviral Polypeptide Membrane Fusion Inhibitor, and Preparation Method and Application Thereof” (priority 2025, published 2026) are IC50 and CC50 values, retold here.

The subject of one data set is RSV A long virus strain. It counts as cell-based. On the procedure: In this embodiment, an RSV-A long virus strain was used as an infection virus in the present disclosure. The anti-RSV activity of the synthesized polypeptide was determined through CPE detection.
The inhibitory activity of the compounds of Table 1-1-Table 1-5, positive polypeptide in Table 1-11, and positive control T-118 against the RSV-A long virus strain was detected.
(§1) Human Epithelial Pharyngeal Carcinoma Cells (HEp-2) were from the American Type Culture Collection (ATCC), with a catalog number CCL-23. The cells were cultured in a DMEM culture solution in which 10% fetal bovine serum, 1% sodium pyruvate, 1% nonessential amino acids, 2 mM glutamine, 100 U/mL penicillin, and 100 μg/mL streptomycin were added. The RSV A long virus strain was from the ATCC, with a catalog number VR-26.
This study used a plaque reduction experiment to detect the in-vitro activity of a test sample against the RSV A long virus strain. The test sample and a control compound were tested at 8 concentrations in duplicated wells. The HEp-2 cells were digested with trypsin and then diluted to a concentration of 300,000 cells per milliliter by using an experimental culture solution. The diluted cells were added to a 96-well cell test board, with 100 μL per well, corresponding to 30000 cells per well. The cells were cultured overnight in a 37° C. incubator with 5% CO2. On the second day, the test sample was diluted in an experimental culture medium at a fold ratio. The sample diluted at a fold ratio and an equal volume of virus (100 PFU per well) were well mixed and incubated at 37° C. in 5% CO2 for 1 h. Then, the culture solution in the 96-well cell test board was discarded, the sample virus mixed solution (200 μL) was added to the 96-well cell culture plate, and incubated at 37° C. in 5% CO2 for 2 hours. After 2 h, the sample virus mixed solution was discarded, and 200 μL of maintenance culture medium containing 0.8% CMC and the corresponding concentration of the test sample was added. A cell control (cells, without compound treatment or viral infection) and a viral control (cell infection virus, without compound treatment) were set. The cells were cultured for 1 day in the 37° C. incubator with 5% CO2. One day after viral infection, the culture medium was discarded, the cells were fixed with 4% paraformaldehyde, and then permeabilization was performed with 0.5% Triton X-100. After the plate was washed with DPBS, an RSV-specific antibody (RSV antibody, diluted 1:3000) was added and incubated at 37° C. for 1 h. Then, a secondary antibody (donkey anti-goat IgG, diluted 1:500) and incubated at 37° C. for 1 h. The secondary antibody was discarded, a TrueBlue solution was added, dyeing was performed for 10 min; and the plate was washed with running water and then air-dried, and the number of spots in each well was counted by using a microplate imaging counter. Raw data was used for calculating the antiviral activity of the samples.
(§2) The raw data for plaque counts and cell viability tests were used for analyzing the antiviral activity and cytotoxicity of the test samples, respectively. A calculation formula was shown as follows.
% inhibition rate=100−(sample value-cell control average value)/(virus control average value-cell control average value)×100%
(§3) Non-linear fitting analysis was performed on the inhibition rate of the sample by using GraphPad Prism (version 10), so as to calculate the IC50 and CC50 values for the sample.
IC50: in an in-vitro antiviral activity experiment, IC50 represented an inhibition ability indicator of a compound to be tested against the Hep-2 cells infected by the RSV A long virus strain.

Data set [1] is described as follows: Cytotoxicity test in HEp-2 cells (CCK8 cell viability). As to conditions: human. It counts as cell-based. As to the method: as §1
A cytotoxicity test and an antiviral test were performed in parallel. The HEp-2 cells were inoculated in the microplate at a density of 30,000 cells per well, and cultured overnight in the 37° C. incubator with 5% CO2. On the next day, the diluted test sample was added. The cell control (cells, without compound treatment) and a culture solution control (culture solution only, without cell or compound treatment) were set. A final concentration of DMSO in the culture solution was 0.5%. The cells were cultured for 1 day in the 37° C. incubator with 5% CO2. Cell viability was detected by using a cell viability detection kit CCK8.
as §2
cell survival rate=(sample value-culture medium control average value)/(cell control average value-culture medium control average value)×100
as §3
CC50: in the in-vitro antiviral activity experiment, CC50 was used to measure the toxicity of the compound to be tested to the Hep-2 cells. To be precise, when the compound to be tested was at a specific concentration, 50% of the Hep-2 cells was caused to die, and this concentration was defined as the CC50. A fitting formula was log (inhibitor) vs. response-Variable slope (four parameters).

Where [2] appears, read: RSV A long virus strain, HEp-2 cells, plaque reduction, 1 day, read-out: IC50.
The mark [3] stands for this setting: HEp-2 cells, CCK8, 1 day, read-out: CC50.

Read-outs that look alike come from different tables or passages of the source. Where a SMILES comes first, the peptide text is derived from it. The star is where a group is joined. X1 = CC(C)CCCC(C)C1CCC2C3CC=C4CC(OC(=O)CCC(=O)*)CCC4(C)C3CCC12C

For the molecule `CC[C@H](C)[C@H](NC(=O)[C@H](CO)NC(=O)[C@H](CCC(=O)O)NC(=O)[C@H](CC(N)=O)NC(=O)[C@@H](NC(=O)[C@H](CCCCN)NC(=O)[C@H](CO)NC(=O)[C@H](CO)NC(=O)[C@H](C)NC(=O)[C@H](CC(=O)O)NC(=O)[C@H](CC(N)=O)NC(=O)[C@@H](NC(=O)[C@H](CCC(=O)O)NC(=O)[C@H](CC(C)C)NC(=O)[C@H](CCCNC(=N)N)NC(=O)[C@H](Cc1ccccc1)NC(=O)[C@H](C)NC(=O)[C@H](CC(=O)O)NC(=O)[C@H](C)NC(C)=O)C(C)C)[C@@H](C)CC)C(=O)N[C@@H](CCC(=O)O)C(=O)N[C@@H](CCC(=O)O)C(=O)N[C@@H](CO)C(=O)N[C@@H](CC(C)C)C(=O)N[C@@H](CC(C)C)C(=O)N[C@@H](CO)C(=O)N[C@@H](CC(C)C)C(=O)N[C@@H](CCC(=O)O)C(=O)N[C@@H](CCCCN)C(=O)N[C@@H](CC(C)C)C(=O)N[C@@H](Cc1c[nH]cn1)C(=O)N[C@@H](CC(N)=O)C(=O)N[C@H](C(=O)N[C@@H](CC(N)=O)C(=O)N[C@@H](C)C(=O)N[C@H](C(=O)N[C@@H](C)C(N)=O)[C@@H](C)O)C(C)C` [Compound 6] (Ac-ADAFRLEVNDASSKINESIEESLLSLEKLHNVNATA-NH2), the concentration for half-maximal inhibition (IC50) in the data set on RSV A long virus strain was greater than 8000 nM. Further, in data set [1], the CC50 at 1 day was greater than 8000 nM.
Take `CC[C@H](C)[C@H](NC(=O)[C@H](Cc1ccccc1)NC(=O)[C@H](CCCCN)NC(=O)[C@H](CC(C)C)NC(=O)[C@H](CO)NC(=O)[C@H](CCC(N)=O)NC(=O)[C@H](CCC(=O)O)NC(=O)[C@@H](NC(=O)[C@H](CCCCN)NC(=O)[C@H](CCCCN)NC(=O)[C@H](CC(N)=O)NC(=O)[C@@H](NC(=O)[C@H](CCC(N)=O)NC(=O)[C@H](CCC(=O)O)NC(=O)[C@H](CC(C)C)NC(C)=O)C(C)C)[C@@H](C)CC)C(=O)N[C@@H](CCC(=O)O)C(=O)N[C@@H](CCCCN)C(=O)N[C@@H](CO)C(=O)N[C@@H](CC(=O)O)C(=O)N[C@@H](CCCCN)C(=O)N[C@@H](CC(C)C)C(=O)N[C@@H](CC(C)C)C(=O)N[C@@H](CCC(=O)O)C(=O)N[C@@H](CC(N)=O)C(=O)N[C@H](C(=O)N[C@@H](CC(N)=O)C(=O)N[C@@H](CCCCN)C(=O)NCC(=O)N[C@@H](CCCCN)C(=O)N[C@@H](CS)C(=O)N[C@@H](CCC(=O)O)C(=O)N[C@@H](C)C(=O)N[C@@H](C)C(=O)N[C@@H](C)C(=O)N[C@@H](CCCCN)C(=O)N[C@@H](CCCCNC(=O)CCC(=O)OC1CCC2(C)C(=CCC3C2CCC2(C)C(C(C)CCCC(C)C)CCC32)C1)C(N)=O)C(C)C` (stereo partly shown) [Positive polypeptide 5, reference compound] (Ac-LEQVNKKIEQSLKFIEKSDKLLENVNKGKCEAAAKK(X1)-NH2): the IC50 in the data set with RSV A long virus strain (setting [2]) is greater than 300 nM. The CC50 at 1 day in data set [1] (setting [3]) was 3720 nM.
In the case of `CC[C@H](C)[C@H](NC(=O)[C@H](CCCCN)NC(=O)[C@H](CCCCN)NC(=O)[C@H](CC(C)C)NC(=O)[C@H](CO)NC(=O)[C@H](CCC(=O)O)NC(=O)[C@H](CCC(=O)O)NC(=O)[C@@H](NC(=O)[C@H](CCCCN)NC(=O)[C@H](CCCCN)NC(=O)[C@H](CC(N)=O)NC(=O)[C@@H](NC(=O)[C@H](CCC(=O)O)NC(=O)[C@H](CCC(=O)O)NC(=O)[C@@H](NC(=O)[C@H](CCCCN)NC(=O)[C@H](CCCCN)NC(=O)[C@H](CC(=O)O)NC(=O)[C@H](Cc1ccccc1)NC(=O)[C@H](CCC(=O)O)NC(=O)[C@H](CC(=O)O)NC(=O)[C@H](Cc1c[nH]c2ccccc12)NC(C)=O)[C@@H](C)CC)C(C)C)[C@@H](C)CC)C(=O)N[C@@H](CCC(=O)O)C(=O)N[C@@H](CCC(=O)O)C(=O)N[C@@H](CO)C(=O)N[C@@H](CC(=O)O)C(=O)N[C@@H](CCCCN)C(=O)N[C@@H](CCCCN)C(=O)N[C@@H](CC(C)C)C(=O)N[C@@H](CCC(=O)O)C(=O)N[C@@H](CCC(=O)O)C(=O)N[C@H](C(=O)N[C@@H](CC(N)=O)C(=O)N[C@@H](CCCCN)C(=O)N[C@@H](CCCCN)C(=O)N[C@@H](CC(C)C)C(N)=O)C(C)C` [Compound 5] (Ac-WDEFDKKIEEVNKKIEESLKKIEESDKKLEEVNKKL-NH2), the IC50 with RSV A long virus strain (setting [2]) came to 1120 nM. Moreover, in data set [1] (setting [3]), the CC50 at 1 day is greater than 8000 nM.
For the molecule `CC[C@H](C)[C@H](NC(=O)[C@H](CCCCN)NC(C)=O)C(=O)N[C@@H](CCC(=O)O)C(=O)N[C@@H](CCC(=O)O)C(=O)N[C@H](C(=O)N[C@@H](CC(N)=O)C(=O)N[C@@H](CCCCN)C(=O)N[C@@H](CCCCN)C(=O)N[C@H](C(=O)N[C@@H](CCC(=O)O)C(=O)N[C@@H](CCC(=O)O)C(=O)N[C@@H](CO)C(=O)N[C@@H](CC(C)C)C(=O)N[C@@H](CCCCN)C(=O)N[C@@H](CCCCN)C(=O)N[C@H](C(=O)N[C@@H](CCC(=O)O)C(=O)N[C@@H](CCC(=O)O)C(=O)N[C@@H](CO)C(=O)N[C@@H](CC(=O)O)C(=O)N[C@@H](CCCCN)C(=O)N[C@@H](CCCCN)C(=O)N[C@@H](CC(C)C)C(=O)N[C@@H](CCC(=O)O)C(=O)N[C@@H](CCC(=O)O)C(=O)N[C@H](C(=O)N[C@@H](CC(N)=O)C(=O)N[C@@H](CCCCN)C(=O)N[C@@H](CCCCN)C(=O)N[C@@H](CC(C)C)C(=O)N[C@@H](CCC(=O)O)C(=O)N[C@@H](C)C(=O)N[C@@H](C)C(=O)N[C@@H](C)C(=O)N[C@@H](CCCCN)C(=O)N[C@@H](CCCCNC(=O)CCC(=O)OC1CCC2(C)C(=CCC3C2CCC2(C)C(C(C)CCCC(C)C)CCC32)C1)C(N)=O)C(C)C)[C@@H](C)CC)[C@@H](C)CC)C(C)C` (stereo partly shown) [Compound 10] (Ac-KIEEVNKKIEESLKKIEESDKKLEEVNKKLEAAAKK(X1)-NH2), the IC50 in the data set with RSV A long virus strain (setting [2]) came to 18.1 nM. The CC50 at 1 day in data set [1] (setting [3]) was determined as 1400 nM.
In the case of `CC[C@H](C)[C@H](NC(C)=O)C(=O)N[C@@H](CCC(=O)O)C(=O)N[C@@H](CCC(N)=O)C(=O)N[C@H](C(=O)N[C@@H](CC(N)=O)C(=O)N[C@@H](CCCCN)C(=O)N[C@@H](CCCCN)C(=O)N[C@H](C(=O)N[C@@H](CCC(=O)O)C(=O)N[C@@H](CCC(N)=O)C(=O)N[C@@H](CO)C(=O)N[C@@H](CC(C)C)C(=O)N[C@@H](CCCCN)C(=O)N[C@@H](Cc1ccccc1)C(=O)N[C@H](C(=O)N[C@@H](CCC(=O)O)C(=O)N[C@@H](CCCCN)C(=O)N[C@@H](CO)C(=O)N[C@@H](CC(=O)O)C(=O)N[C@@H](CCCCN)C(=O)N[C@@H](CC(C)C)C(=O)N[C@@H](CC(C)C)C(=O)N[C@@H](CCC(=O)O)C(=O)N[C@@H](CC(N)=O)C(=O)N[C@H](C(=O)N[C@@H](CC(N)=O)C(=O)N[C@@H](CCCCN)C(=O)NCC(=O)N[C@@H](CCCCN)C(=O)N[C@@H](CS)C(=O)N[C@@H](CCC(=O)O)C(=O)N[C@@H](C)C(=O)N[C@@H](C)C(=O)N[C@@H](C)C(=O)N[C@@H](CCCCN)C(=O)N[C@@H](CCCCNC(=O)CCC(=O)OC1CCC2(C)C(=CCC3C2CCC2(C)C(C(C)CCCC(C)C)CCC32)C1)C(N)=O)C(C)C)[C@@H](C)CC)[C@@H](C)CC)C(C)C` (stereo partly shown) [Positive polypeptide 4, reference compound] (Ac-IEQVNKKIEQSLKFIEKSDKLLENVNKGKCEAAAKK(X1)-NH2), the 50% inhibitory concentration (IC50) with RSV A long virus strain (setting [2]) was 190 nM. Moreover, in data set [1] (setting [3]), the CC50 at 1 day was 4620 nM.
